# Data: patent US10086007B2, “Materials and methods for treatment of cystic fibrosis and for induction of ion secretion” (priority 2012, dated 2018)
# Tests used:
# [1] = test system: Caco-2 cells; assay: Confocal Ca2+ fluorescence microscopy (Fluo-8); assay type: cell-based
# Description: Caco-2 cells are obtained from ATTC and cultured in Dulbecoo's modified Eagle's medium supplemented with 10% fetal calf serum (FCS) and 1% nonessential amino acids at 37° C. and 5% CO2. Caco-2 cells are passaged for 20-25 times and are seeded (2×10^5 cells/dish) on 5 cm petri-dishes and grown until 80% confluence, when the FCS concentration is changed to 5%. Cells are grown for another 10 days before they are used for functional studies.
# Caco2 cells grown in 25 mm round coverslips are mounted on the bath chamber RC-21BR attached to series 20 stage adapter (Warner Instruments, CT USA). The cells are maintained at 37° C. using a single channel table top heater controller (TC-324B, Warner Instruments, CT USA). Cells are loaded with the fluorescent calcium indicator Fluo-8 AM dye (Cat #0203, TEFLab, Inc., Austin, Tex. USA) at 0.5 μM concentration at room temperature and incubated for 45 minutes. Confocal laser scanning microscopy is performed using an inverted Fluoview 1000 IX81 microscope (Olympus, Tokyo, Japan) and a U Plan S-Apo 20× objective. Fluorescence is recorded by argon lasers with excitation at 488 nm and emission at 515 nm. The Fluorescent images are collected with scanning confocal microscope. […] Changes are recorded and fluorescence is measured for various cells. […]
# [2] = test system: ileal mucosa; assay type: cell-based, mouse
# From the text: Normally fed, 8-week-old, male NIH Swiss mice are sacrificed by CO2 inhalation, followed by cervical dislocation. The small intestine is gently removed, and the segment is washed and flushed in ice-cold Ringer's solution. Then the mucosa is separated from the serosa and the muscular layers by stripping through the submucosal plane as previously described (Zhang et al. (2007) J Physiol 581(3):1221-1233). Following exsanguinations, ileal mucosa is obtained from a 10 cm segment close to the caecum. All experiments are approved by the University of Florida Institutional Animal Care and Use Committee.
# Ion transport studies are performed on ileal sheets. Tissues are then mounted in between the two halves of an Ussing type-Lucite chamber with 0.3 cm^2 exposed surface areas (P2304, Physiologic Instruments, San Diego, Calif., USA). Regular Ringer's solution (115 mM NaCl, 25 mM NaHCO3, 4.8 mM K2HPO4, 2.4 mM KH2PO4, 1.2 mM MgCl2 and 1.2 mM CaCl2) bubbled with 95% O2: 5% CO2 is used bilaterally as bathing solution for the tissues and the temperature is maintained constant at 37° C. The chambers are balanced to eliminate osmotic and hydrostatic forces. Resistance due to fluid is also compensated. The tissues are allowed to stabilize. The basal short-circuit current (Isc) and the corresponding conductance (G) are recorded using a computer controlled voltage/current clamp device (VCC MC-8, Physiologic Instruments).
# The tissues are incubated with H-89 for 30 minutes. Increasing concentrations of glucose (0.015-8 mM) are added every 5 minutes and the peak current is noted. Saturation kinetic constant is calculated for the corresponding Km and Vmax for treated and untreated tissues.
# [3] = test system: NFA-sensitive current; assay: Isc with NSP4 peptide and glucose (FIG. 6); assay type: cell-based
# [4] = test system: Caco-2 cells; assay: Gramicidin perforated whole cell currents (patch clamp); assay type: cell-based; set-up: dose or concentration left out as unconfirmed; details: in the continued presence of glucose
# [5] = test system: Caco-2 cells; assay: Ussing chamber Isc in Caco-2 cells grown on permeable inserts; assay type: cell-based; details: added to the apical side of Caco-2 cells
# Description: Caco-2 cells are obtained from ATTC and cultured in Dulbecoo's modified Eagle's medium supplemented with 10% fetal calf serum (FCS) and 1% nonessential amino acids at 37° C. and 5% CO2. […] Cells are grown for another 10 days before they are used for functional studies.
# [6] = test system: chloride secretion; assay: Chloride secretion with NSP4 peptide and glucose (FIG. 7); assay type: cell-based
# [7] = test system: small intestine cells; assay: Glucose-induced HCO3- secretion in small intestine cells; assay type: cell-based; set-up: dose or concentration left out as unconfirmed
smiles,measurement,setting,value
"CO[C@@H]([C@H](O)[C@H](O)CO)[C@@H](O)C=O [3-OMG, 3-O-methylglucose]",intracellular Ca^2+ increase compared to similar concentration of glucose,[1],little increase
same,Vmax of Isc increase,"[2]; increasing concentration added to lumen side, Michaelis-Menten fit, n=6 tissues",1.9±0.13 μeq·h^−1·cm^−2
same,Km,"[2]; increasing concentration added to lumen side, Michaelis-Menten fit, n=6 tissues, read-out: Km of Isc increase",220 ± 70 µM
O=C(O)CN(CC(=O)O)c1ccccc1OCCOc1ccccc1N(CC(=O)O)CC(=O)O [BAPTA],glucose-stimulated increase in intracellular Ca^2+ after pre-incubation,[1]; pre-incubating the cells 45 minutes with BAPTA,fails to show a glucose-stimulated increase
"O=S(=O)(NCCNC/C=C/c1ccc(Br)cc1)c1cccc2cnccc12 [H89, H-89]",effect on glucose-stimulated net increase in Isc,[2]; pre-treatment of small intestine cells with PKA inhibitor,significant reduction
"O=C(O)c1cccnc1Nc1cccc(C(F)(F)F)c1 [NFA, niflumic acid]",inhibition of anion secretion induced by NSP4 peptide and glucose,[3],not completely inhibited
same,effect on NSP4114-135-stimulated current,[3]; NFA 100 μM,abolishes
same,inhibition of glucose-stimulated increase in Isc,"[2]; 100 μM to the lumen side, 8 mM glucose",partial inhibition
same,effect on glucose activated inward current,[4],inhibits the glucose activated inward current
same,inhibition of glucose-stimulated increase in Isc,[5],significant inhibition
same,inhibition of chloride secretion induced by NSP4 peptide and glucose,[6],not completely inhibited
O=C(O)c1cc([N+](=O)[O-])ccc1NCCCc1ccccc1 [NPPB],"inhibition of glucose-induced, anion channel-mediated HCO3^− secretion",[7]; NPPB,significant inhibition
same,"glucose-induced, anion channel-mediated HCO3^− secretion",[7]; with NPPB,4.2±0.7 mEq·h^−1·cm^−2
O=C(CCc1ccc(O)cc1)c1c(O)cc(O)cc1O[C@@H]1O[C@H](CO)[C@@H](O)[C@H](O)[C@H]1O [phlorizin],Isc response to increasing glucose in pre-treated tissues,[2]; tissues pre-treated with phlorizin,no response to glucose
